Reference: patent US11191855B2, “1,7-diaryl-1,6-heptadiene-3,5-dione derivatives, methods for the production and use thereof” (UNIVERSITÄTSKLINIKUM REGENSBURG, priority 2015, dated 2021)
Where a name gives a salt, the structure may show the parent alone. Read-outs that look alike come from different tables or passages of the source. Marks after values point to notes of the source that are not given here.

Test system: E. coli ATCC 25922
Test: Phototoxicity test c.1) (LED array 430-435 nm, CFU count by Miles and Misra)
Type: cell-based, Escherichia coli
Conditions: for log reduction at 10 µM / log reduction at 50 µM: Escherichia coli, ATCC25922, light or radiation study; for log reduction at 10 µM: read-out: Effectiveness against E. Coli: Reduction in CFU in log10 at concentration of 10 μM; for log reduction at 50 µM: read-out: Effectiveness against E. Coli: Reduction in CFU in log10 at concentration of 50 μM
Experimental: A sample of the bacterial cell Staphylococcus. aureus (ATCC number: 25923) or Escherichia. coli (ATCC number: 25922) was removed from a cryo-freeze culture and cultured under aerobic conditions at 37° C. and 175 rpm overnight in an orbital shaker (MAXQ4000, Thermo Scientific, Dubuque, Iowa, USA). Growth was carried out in 20 mL Todd-Hewitt broth (Carl Roth, Karlsruhe, Germany) supplemented with 0.3% of yeast extract (AppliChem, Darmstadt, Germany).
Subsequently, dilutions (0, 5, 10, […] and 20% v/v of the overnight culture) and their absorptions were measured at 600 nm in triplicate for 100 μL (Infinite 200 M Pro, Tecan, Mannedorf, Switzerland). A calibration graph (Microsoft Excel) was used to calculate the volume which was required to produce 20 mL of a culture with an absorption of 0.05 at 600 nm. The volume calculated for the overnight culture was topped up with Todd-Hewitt broth (composition as above) to 20 mL and incubated for two hours at 37° C. with constant movement (175 rpm, MAXQ4000). The cultures were then in the exponential growth phase; the absorption at 600 nm was between 0.3 and 0.45.
A 2-hour culture was divided into 1800 μL aliquots. After centrifuging at 20° C., 830 rcf, 5 min (5417R centrifuge, Eppendorf, Hamburg, Germany), the pellets were re-suspended in phosphate buffer (Dulbeccos' Modified Phosphate Saline, DPBS, Sigma-Aldrich) with either 10 or 50 μM of the corresponding photosensitizer, wherein the final volume was kept at 1800 μL.
The solutions obtained were immediately incubated on the orbital shaker (see above for parameters) for 5 or 25 minutes.
Three controls were run at the same time for each photosensitizer. The “light only” control contained DPBS without photosensitizer. The “photosensitizer only” (“PS only”) control was incubated like the PDI samples, but not irradiated and kept strictly in darkness. A further control (double negative, “Co−/−”), received neither light nor photosensitizer.
After the incubation, duplicates of the samples (500 μL each) were transferred into a 24-well microtitre plate (Cellstar, Greiner Bio-One, Frickenhausen, Germany). The “PS only” and “Co −/−” samples were placed in their own microtitre plate which was packed in aluminium foil so as to be lightproof.
The irradiation was carried out under constant shaking (MTS4, IKA, Staufen, Germany, 175 rpm) from below on a LED array with maximum homogeneity of the lighting surface. All of the controls were shaken in the same manner. The technical data for the light source are shown in Table 2; the total dose of light applied was 33.8 J/cm^2.
The determination of the colony forming units (CFU) was carried out in accordance with the method published by Miles and Misra (Miles, A A; Misra, S S, Irwin, J O (1938 Nov.). “The estimation of the bactericidal power of the blood” The Journal of hygiene 38 (6): 732-49). In this regard, serial dilutions (1:10) of the corresponding bacterial suspension were produced in DPBS. 5×10 μL of each bacterial dilution was then dripped onto Todd-Hewitt plates (with broth, additional 1.5% agar (Agar-Agar, Kobe I, Roth, Karlsruhe, Germany) and incubated at 37° C. for 24 h. Next, the number of surviving colony forming units was determined. All of the tests were carried out four times.
The photosensitizers were tested against the bacterial strain E. coli ATCC 25922. FIGS. 1-20 show the measured surviving colony forming units (CFU).
The average reference control (arithmetic mean with standard deviation) (no light, no PS) was 3.6×10^8/mL. The logarithmic reduction after illumination is shown with respect to the reference control. The respective upper value, indicated by a *, refers to an incubation period of 5 min and the respectively lower value, indicated by a #, refers to an incubation period of 25 min.

[1] = 5 min, 10 μM, incubation period 5 min (upper value, *), light dose 33.8 J/cm^2, approx. 435 nm, 60 min at 9.4 mW/cm^2, vs reference control
[2] = 5 min, 50 μM, incubation period 5 min (upper value, *), light dose 33.8 J/cm^2, approx. 435 nm, 60 min at 9.4 mW/cm^2, vs reference control
[3] = 25 min, 10 μM, incubation period 25 min (lower value), light dose 33.8 J/cm^2, approx. 435 nm, 60 min at 9.4 mW/cm^2, vs reference control
[4] = 25 min, 50 μM, incubation period 25 min (lower value), light dose 33.8 J/cm^2, approx. 435 nm, 60 min at 9.4 mW/cm^2, vs reference control
[5] = 10 μM, incubation period 5 min (upper value, *), light dose 33.8 J/cm^2, approx. 435 nm, 60 min at 9.4 mW/cm^2, vs reference control
[6] = 10 μM, incubation period 25 min (lower value), light dose 33.8 J/cm^2, approx. 435 nm, 60 min at 9.4 mW/cm^2, vs reference control
[7] = 50 μM, incubation period 5 min (upper value, *), light dose 33.8 J/cm^2, approx. 435 nm, 60 min at 9.4 mW/cm^2, vs reference control
[8] = 50 μM, incubation period 25 min (lower value), light dose 33.8 J/cm^2, approx. 435 nm, 60 min at 9.4 mW/cm^2, vs reference control

Compound	log reduction at 10 µM [1]	log reduction at 50 µM [2]	log reduction at 10 µM [3]	log reduction at 50 µM [4]	other results
NCCOc1ccc(/C=C/C(=O)CC(=O)/C=C/c2ccc(OCCN)cc2)cc1 [Curcumin 0 hydrochloride]	> 4	> 6	> 5	> 6	–
COc1cc(OCCN)ccc1/C=C/C(=O)CC(=O)/C=C/c1ccc(OCCN)cc1OC [Curcumin 01b hydrochloride]	> 2	> 5	> 3	> 7	–
COc1cc(/C=C/C(=O)CC(=O)/C=C/c2cc(I)c(OCCN)c(OC)c2)cc(I)c1OCCN [Curcumin 01c hydrochloride]	> 2	> 3	> 2	> 4	–
Cc1cc(/C=C/C(=O)CC(=O)/C=C/c2ccc(OCCN)c(C)c2)ccc1OCCN [Curcumin 01e hydrochloride]	> 5	> 4	> 5	> 7	–
COc1cc(/C=C/C(=O)CC(=O)/C=C/c2ccc(OCCOCCN)c(OC)c2)ccc1OCCOCCN [Curcumin 02 hydrochloride]	> 2	> 6	> 4	> 7	–
NCCCOc1ccc(/C=C/C(=O)CC(=O)/C=C/c2ccc(OCCCN)c(OCc3ccccc3)c2)cc1OCc1ccccc1 [Curcumin 04 hydrochloride]	> 1	> 3	> 3	> 4	–
NCCOc1cc(/C=C/C(=O)CC(=O)/C=C/c2cc(OCCN)c(OCCN)c(OCCN)c2)cc(OCCN)c1OCCN [Curcumin 05 hydrochloride]	> 4	> 7	> 4	> 6	–
NCCOc1cc(/C=C/C(=O)CC(=O)/C=C/c2ccc(OCCOCCOCCO)c(OCCN)c2)ccc1OCCOCCOCCO [Curcumin 08 hydrochloride]	–	~1	–	> 1	–
COc1cc(/C=C/C(=O)C2CCC/C(=C\c3ccc(OCCN)c(OC)c3)C2=O)ccc1OCCN (centres unmarked) [Curcumin 09b hydrochloride]	–	> 1	–	> 2	–
COc1cc(/C=C/C(=O)CC(=O)/C=C/c2ccc(OCCC[N+](C)(C)C)c(OC)c2)ccc1OCCC[N+](C)(C)C [Curcumin 10a hydrochloride, 3,3′-(4,4′-((1E,6E)-3,5-dioxohepta-1,6-diene-1,7-diyl)bis(2-methoxy-4,1-phenylene))bis(oxy)bis(N,N,N-trimethylpropan-1-aminium) chloride]	–	–	–	–	log reduction at 10 µM (5 min): > 1; log reduction at 50 µM (5 min): > 5; log reduction at 10 µM (25 min): > 1; log reduction at 50 µM (25 min): > 5
COc1cc(/C=C/C(=O)CC(=O)/C=C/c2ccc(OCCNC(=N)N)c(OC)c2)ccc1OCCNC(=N)N [Curcumin 10b hydrochloride]	> 5	> 7	> 4	> 6	–
COc1cc(/C=C/C(=O)CC(=O)/C=C/c2ccc(OCCC[n+]3ccccc3)c(OC)c2)ccc1OCCC[n+]1ccccc1 [Curcumin 10c hydrochloride, 1,1′-(3,3′-(4,4′-((1E,6E)-3,5-dioxohepta-1,6-diene-1,7-diyl)bis(2-methoxy-4,1-phenylene))bis(oxy)bis(propane-3,1-diyl))dipyridinium chloride]	> 4	> 7	> 5	> 7	–
COc1ccc(/C=C/C(=O)CC(=O)/C=C/c2ccc(OCCN)c(OC)c2)cc1OC [Curcumin 11b hydrochloride]	~1	~3	> 1	> 3	–
NCCOc1ccc(/C=C/C(=O)CC(=O)/C=C/c2ccc(OCCN)c3ccccc23)c2ccccc12 [Curcumin 12a hydrochloride]	> 1	> 6	> 4	> 6	–
COc1ccc(/C=C/C(=O)CC(=O)/C=C/c2ccc(OCCN)c(OCCN)c2)cc1OCCN [Curcumin 13b hydrochloride]	> 7	> 7	> 7	> 7	–
COc1cc(/C(C)=C(\C)C(=O)CC(=O)/C(C)=C(\C)c2ccc(OCCN)c(OC)c2)ccc1OCCN [Curcumin 14b hydrochloride]	–	–	–	> 1	–
(1E,6E)-1,7- bis(4-(2- aminoethoxy)-3- methoxy- phenyl)hepta-1,6- diene-3,5-dione hydrochloride- zinc complex [Curcumin 01a zinc complex]	–	–	–	–	Effectiveness against E. Coli: Reduction in CFU in log10 at concentration of 10 μM [5]: >3* log10; Effectiveness against E. Coli: Reduction in CFU in log10 at concentration of 10 μM [6]: >2 log10; Effectiveness against E. Coli: Reduction in CFU in log10 at concentration of 50 μM [7]: >5* log10; Effectiveness against E. Coli: Reduction in CFU in log10 at concentration of 50 μM [8]: >5 log10
Bis[(1E,6E)-1,7- bis(4-(2- aminoethoxy)-3- methoxy- phenyl)hepta-1,6- diene-3,5-dione hydrochloride] boron complex [Roseo-curcumin 01a hydrochloride]	–	–	–	–	Effectiveness against E. Coli: Reduction in CFU in log10 at concentration of 10 μM [5]: >5* log10; Effectiveness against E. Coli: Reduction in CFU in log10 at concentration of 10 μM [6]: >5 log10; Effectiveness against E. Coli: Reduction in CFU in log10 at concentration of 50 μM [7]: >7* log10; Effectiveness against E. Coli: Reduction in CFU in log10 at concentration of 50 μM [8]: >6 log10
